Each structure is given as a SMILES string.

For the test, the target named is T1, MAGL (recombinant wild-type) (Homo sapiens, UniProt Q99685).
T1 sequence (Q99685 1-303): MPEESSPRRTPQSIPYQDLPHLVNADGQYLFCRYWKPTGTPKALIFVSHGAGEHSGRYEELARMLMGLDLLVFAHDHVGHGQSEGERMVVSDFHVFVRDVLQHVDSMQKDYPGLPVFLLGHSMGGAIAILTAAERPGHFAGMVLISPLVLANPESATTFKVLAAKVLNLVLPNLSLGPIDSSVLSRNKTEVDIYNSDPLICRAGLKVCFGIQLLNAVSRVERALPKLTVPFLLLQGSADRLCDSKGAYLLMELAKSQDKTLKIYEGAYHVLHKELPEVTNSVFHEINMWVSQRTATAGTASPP
As to the kind of experiment: 4-NPA assay: MAGL inhibitory activity by hydrolysis of 4-nitrophenylacetate, absorbance at 405 nm. Type of test: biochemical. The following applies: 4-NPA assay (values without footnote [a]). As to the method:
Compounds were profiled for MAGL inhibitory activity by measuring the enzymatic activity of MAGL by following the hydrolysis of 4-nitorphenylacetate resulting in 4-nitrophenol, which absorbs at 405-412 nm (G. G. Muccioli, G. Labar, D M. Lambert, Chem. Bio. Chem. 2008, 9, 2704-2710). This assay is hereinafter abbreviated “4-NPA assay”.
The 4-NPA assay was carried out in 384 well assay plates (black with clear bottom, non-binding surface treated, Corning Ref. 3655) in a total volume of 40 μL. Compound dilutions were made in 100% DMSO (VWR Chemicals 23500.297) in a polypropylene plate in 3-fold dilution steps to give a final concentration range in the assay from 25 μM to 1.7 nM. 1 μL compound dilutions (100% DMSO) were added to 19 μL MAGL (recombinant wild-type) in assay buffer (50 mM TRIS (GIBCO, 15567-027), 1 mM EDTA (Fluka, 03690-100 ml)). The plate was shaked for 1 min at 2000 rpm (Variomag Teleshake) and then incubated for 15 min at RT. To start the reaction, 20 μL 4-Nitrophenlyacetate (Sigma N-8130) in assay buffer with 6% EtOH was added. The final concentrations in the assay were 1 nM MAGL and 300 μM 4-Nitrophenylacetate. After shaking (1 min, 2000 rpm) and 5 min incubation at RT, the absorbance at 405 nm was measured for a first time (Molecular Devices, SpectraMax Paradigm). A second measurement was then done after incubation for 80 min at RT. From the two measurements, the slope was calculated by substracting the first from the second measurement.
With `O=C1COc2ccc(C(=O)N3CCC(C(c4ccccc4)c4cccc(F)n4)CC3)cc2N1` (single isomer, unassigned) [Example 99, 6-[4-[(R or S)-(6-fluoro-2-pyridyl)-phenyl-methyl]piperidine-1-carbonyl]-4H-1,4-benzoxazin-3-one], the IC50 (as a rule, the concentration that gives 50% inhibition) amounted to 2.6 nM.

With `O=C1COc2cc(F)c(C(=O)N3CCC(C(c4ccccc4)c4ccccc4)CC3)cc2N1` [Example 1, 6-(4-Benzhydrylpiperidine-1-carbonyl)-7-fluoro-4H-1,4-benzoxazin-3-one], the IC50 turned out to be 0.95 nM.

As to `O=C1COc2ccc(C(=O)N3CCC(C(c4ccc(F)cc4)c4ccc(OCCOCCF)cc4)CC3)cc2N1` (single isomer, unassigned) [Example 108, 6-[4-[(S or R)-[4-[2-(2-Fluoroethoxy)ethoxy]phenyl]-(4-fluorophenyl)methyl]piperidine-1-carbonyl]-4H-1,4-benzoxazin-3-one], the IC50 worked out at 9.6 nM.

On to `COc1ccc(C(c2ccncc2)C2CCN(C(=O)c3ccc4c(c3)NC(=O)CO4)CC2)cc1OC` (single isomer, unassigned) [Example 126, 6-[4-[(R or S)-(3,4-Dimethoxyphenyl)-(4-pyridyl)methyl]piperidine-1-carbonyl]-4H-1,4-benzoxazin-3-one], for which the half-inhibitory concentration (IC50) amounted to 8.5 nM.

As to `O=C1COc2ccc(C(=O)N3CCC(c4noc5ccc(F)cc45)CC3)cc2N1` [Example 52, 6-[4-(5-fluoro-1,2-benzoxazol-3-yl)piperidine-1-carbonyl]-4H-1,4-benzoxazin-3-one], the IC50 was determined as 140 nM.

Turning to `COc1ccc([C@@H](c2ccccc2)C2CCN(C(=O)c3ccc4c(c3)NC(=O)CO4)CC2)cc1` (single isomer, unassigned) [Example 11], the IC50 amounted to 0.6 nM.

In the case of `COc1cc(N2CCN(C(=O)c3ccc4c(c3)NC(=O)CO4)CC2)cc(OC)c1OC` [Example 92, 6-[4-(3,4,5-trimethoxyphenyl)piperazine-1-carbonyl]-4H-1,4-benzoxazin-3-one], the 50% inhibitory concentration (IC50) was found to be 2740 nM.

On to `O=C1COc2ccc(C(=O)N3CCC(c4c[nH]c5ccccc45)CC3)cc2N1` [Example 18, 6-[4-(1H-indol-3-yl)piperidine-1-carbonyl]-4H-1,4-benzoxazin-3-one], for which the concentration for half-maximal inhibition (IC50) came to 33 nM.

With `COc1ccc([C@H](c2ccccc2)C2CCN(C(=O)c3ccc4c(c3)NC(=O)CO4)CC2)cc1OC` (single isomer, unassigned) [Example 8], the IC50 is 4 nM.

For `Cn1cc(C2CCN(C(=O)c3cc4c(cc3F)OCC(=O)N4)CC2)c2cc(Cl)ccc21` [Example 28, 6-[4-(5-chloro-1-methylindol-3-yl)piperidine-1-carbonyl]-7-fluoro-4H-1,4-benzoxazin-3-one], the IC50 amounted to 1 nM.

On to `COc1ccc2[nH]cc(C3CCN(C(=O)c4ccc5c(c4)NC(=O)CO5)CC3)c2c1` [Example 24, 6-[4-(5-methoxy-1H-indol-3-yl)piperidine-1-carbonyl]-4H-1,4-benzoxazin-3-one], for which the IC50 was determined as 20 nM.

On to `COc1ccc(C(c2cccnc2)C2CCN(C(=O)c3ccc4c(c3)NC(=O)CO4)CC2)cc1OC` (single isomer, unassigned) [Example 123, 6-[4-[(S or R)-(3,4-Dimethoxyphenyl)-(3-pyridyl)methyl]piperidine-1-carbonyl]-4H-1,4-benzoxazin-3-one], for which the IC50 was 8.7 nM.

Take `O=C1COc2ccc(C(=O)N3CCC(C(c4ccccc4)c4ccc(OCCOCCF)cc4)CC3)cc2N1` (single isomer, unassigned) [Example 97, 6-[4-[(R or S)-[4-[2-(2-Fluoroethoxy)ethoxy]phenyl]-phenyl-methyl]piperidine-1-carbonyl]-4H-1,4-benzoxazin-3-one]: the IC50 worked out at 7.4 nM.

With `O=C1COc2ccc(C(=O)N3CCN(c4ccc(Cl)c(Cl)c4)CC3)cc2N1` [Example 86, 6-[4-(3,4-dichlorophenyl)piperazine-1-carbonyl]-4H-1,4-benzoxazin-3-one], the 50% inhibitory concentration (IC50) is 612 nM.

For `COc1cccc(C(c2ccc(F)cc2)C2CCN(C(=O)c3ccc4c(c3)NC(=O)CO4)CC2)c1` (single isomer, unassigned) [Example 121, 6-[4-[(S or R)-(4-Fluorophenyl)-(3-methoxyphenyl)methyl]piperidine-1-carbonyl]-4H-1,4-benzoxazin-3-one], the IC50 was 0.4 nM.

Regarding `CS(=O)(=O)c1cccc(C(c2ccccc2)C2CCN(C(=O)c3ccc4c(c3)NC(=O)CO4)CC2)c1` (single isomer, unassigned) [Example 129, 6-[4-[(R or S)-(3-Methylsulfonylphenyl)-phenyl-methyl]piperidine-1-carbonyl]-4H-1,4-benzoxazin-3-one], the IC50 came out at 12.2 nM.

On to `O=C1COc2ccc(C(=O)N3CCC(c4c[nH]c5ccc(Cl)cc45)CC3)cc2N1` [Example 20, 6-[4-(5-chloro-1H-indol-3-yl)piperidine-1-carbonyl]-4H-1,4-benzoxazin-3-one], for which the concentration for half-maximal inhibition (IC50) came out at 3.55 nM.

Regarding `O=C1COc2ccc(C(=O)N3CCC([C@@H](c4ccc(F)cc4)c4cccc(OCCOCCF)c4)CC3)cc2N1` (single isomer, unassigned) [Example 95, 6-[4-[(R or S)-[3-[2-(2-fluoroethoxy)ethoxy]phenyl]-(4-fluorophenyl)methyl]piperidine-1-carbonyl]-4H-1,4-benzoxazin-3-one], the IC50 came to 1.4 nM.

As to `O=C1COc2ccc(C(=O)N3CCC(C(c4ccccc4)c4cccc(F)c4)CC3)cc2N1` (stereo not drawn) [Example 82, 6-[4-[(3-fluorophenyl)-phenyl-methyl]piperidine-1-carbonyl]-4H-1,4-benzoxazin-3-one], the concentration for half-maximal inhibition (IC50) came to 0.69 nM.

As to `Cn1cc(C2CCN(C(=O)c3ccc4c(c3)NC(=O)CO4)CC2)c2cc(Cl)c(F)cc21` [Example 27, 6-[4-(5-chloro-6-fluoro-1-methylindol-3-yl)piperidine-1-carbonyl]-4H-1,4-benzoxazin-3-one], the IC50 worked out at 2.8 nM.

Turning to `COc1cccc([C@H](c2ccccc2)C2CCN(C(=O)c3ccc4c(c3)NC(=O)CO4)CC2)c1` (single isomer, unassigned) [Example 12], the IC50 was found to be 0.4 nM.

As to `O=C1COc2ccc(C(=O)N3CCN(C(c4ccc(F)cc4)c4ccc(F)cc4)CC3)cc2N1` [Example 84, 6-[4-[bis(4-fluorophenyl)methyl]piperazine-1-carbonyl]-4H-1,4-benzoxazin-3-one], the IC50 is 5.83 nM.

Take `Cn1cc(C2CCN(C(=O)c3cc4c(cc3F)OCC(=O)N4)CC2)c2cc(Cl)c(F)cc21` [Example 26, 6-[4-(5-chloro-6-fluoro-1-methylindol-3-yl)piperidine-1-carbonyl]-7-fluoro-4H-1,4-benzoxazin-3-one]: the IC50 came out at 1.8 nM.

With `O=C1COc2ccc(C(=O)N3CCC(c4c[nH]c5cc(F)ccc45)CC3)cc2N1` [Example 23, 6-[4-(6-fluoro-1H-indol-3-yl)piperidine-1-carbonyl]-4H-1,4-benzoxazin-3-one], the IC50 came to 10.6 nM.

As for `O=C1COc2ccc(C(=O)N3CCC(C(c4ccc(F)cc4)c4ccc(F)nc4)CC3)cc2N1` (single isomer, unassigned) [Example 114, 6-[4-[(S or R)-(4-Fluorophenyl)-(6-fluoro-3-pyridyl)methyl]piperidine-1-carbonyl]-4H-1,4-benzoxazin-3-one], the IC50 turned out to be 4 nM.

Take `O=C1COc2ccc(C(=O)N3CCC(c4c[nH]c5cc(Cl)ccc45)CC3)cc2N1` [Example 21, 6-[4-(6-chloro-1H-indol-3-yl)piperidine-1-carbonyl]-4H-1,4-benzoxazin-3-one]: the 50% inhibitory concentration (IC50) was determined as 14 nM.

In the case of `O=C1COc2ccc(C(=O)N3CCC(c4nn(CCO)c5cc(F)ccc45)CC3)cc2N1` [Example 37, 6-[4-[6-fluoro-1-(2-hydroxyethyl)indazol-3-yl]piperidine-1-carbonyl]-4H-1,4-benzoxazin-3-one], the IC50 turned out to be 350 nM.

As for `O=C1CCc2c(cc(C(=O)N3CCC(C(c4ccc(F)cc4)c4ccc(F)cc4)CC3)cc2OCCF)N1` [Example 106, 7-[4-[Bis(4-fluorophenyl)methyl]piperidine-1-carbonyl]-5-(2-fluoroethoxy)-3,4-dihydro-1H-quinolin-2-one], the IC50 is 7.9 nM.

As to `O=C1COc2ccc(C(=O)N3CCC(c4c[nH]c5ncccc45)CC3)cc2N1` [Example 45, 6-[4-(1H-pyrrolo[2,3-b]pyridin-3-yl)piperidine-1-carbonyl]-4H-1,4-benzoxazin-3-one], the IC50 was 220 nM.

In the case of `Cc1[nH]c2ccc(Cl)cc2c1C1CCN(C(=O)c2ccc3c(c2)NC(=O)CO3)CC1` [Example 47, 6-[4-(5-chloro-2-methyl-1H-indol-3-yl)piperidine-1-carbonyl]-4H-1,4-benzoxazin-3-one], the IC50 worked out at 59 nM.

Values taken from patent US11420961B2, “Heterocyclic compounds” (Hoffmann-La Roche Inc., priority 2017, dated 2022).
